Drawing on patent US9029389B2 (Institut Pasteur Korea, priority 2011, dated 2015), this text covers melting point, inhibition and IC50 for 24 compounds.

pIC50: −log10 of the molar value.

One series deals with T1, Human 5-lipoxygenase (Homo sapiens, UniProt P09917).
T1 construct: purchased Cayman 60402; host or cells: insect cells
T1 sequence (P09917 1-674): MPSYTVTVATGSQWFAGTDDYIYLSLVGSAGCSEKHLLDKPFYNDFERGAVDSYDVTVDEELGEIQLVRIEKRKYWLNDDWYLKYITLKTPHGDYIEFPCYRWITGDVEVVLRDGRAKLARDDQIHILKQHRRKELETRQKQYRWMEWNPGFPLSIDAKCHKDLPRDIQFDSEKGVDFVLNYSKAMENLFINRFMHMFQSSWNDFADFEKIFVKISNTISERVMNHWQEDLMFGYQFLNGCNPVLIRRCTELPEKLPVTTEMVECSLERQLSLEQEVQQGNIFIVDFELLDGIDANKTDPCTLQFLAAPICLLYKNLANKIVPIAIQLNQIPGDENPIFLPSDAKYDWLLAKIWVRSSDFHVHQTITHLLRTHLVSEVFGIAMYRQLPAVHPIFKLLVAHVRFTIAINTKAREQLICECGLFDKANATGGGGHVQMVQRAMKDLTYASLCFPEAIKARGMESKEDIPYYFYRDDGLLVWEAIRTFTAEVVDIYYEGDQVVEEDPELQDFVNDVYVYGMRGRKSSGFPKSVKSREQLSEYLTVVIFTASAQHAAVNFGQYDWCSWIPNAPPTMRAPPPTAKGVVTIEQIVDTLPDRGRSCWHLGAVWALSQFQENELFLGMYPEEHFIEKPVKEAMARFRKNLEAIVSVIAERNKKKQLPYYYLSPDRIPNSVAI
The series can be described thus: Activity of compounds against 5-LO enzyme (LTB4 measurement and/or fluorescence method). Type of series: biochemical. Particulars: for inhibition at 10 µM: 5-LO, single concentration of 10 uM in duplicate; for pIC50: 6 or 11 point dose response in duplicate. The method in brief:
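Two read-outs: LTB4 measured by EIA and/or LC/MS/MS with LTB4-d4 standard after 15 min RT compound preincubation with insect-cell 5-LO and a 5 min 37 °C reaction on 3 uM arachidonic acid (0.1 mM ATP, pH 7.4). The room-temperature fluorescence format used 20 uM H2DCFDA, 100 uM ATP, 3 uM arachidonic acid, 5 min; IC50 from 6/11-point curves.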

For `Cc1nc2ccc(Cl)cn2c1C(=O)NCc1ccc(OC(F)(F)F)cc1` [compound 184, 6-Chloro-2-methyl-N-(4-(trifluoromethoxy)benzyl)imidazo[1,2-a]pyridine-3-carboxamide], the melting point (in general, the temperature, or range, at which the solid turns liquid) lay within 192 to 193 °C. The inhibition (in general, the drop in the measured response relative to a control, in per cent) at 10 µM at Human 5-lipoxygenase is less than 40%.

`CCc1nc2cc(Cl)ccn2c1C(=O)NCc1ccc(Oc2ccc(F)cc2)nc1` [compound 188, 7-Chloro-2-ethyl-N-((6-(4-fluorophenoxy)pyridin-3-yl)methyl)imidazo[1,2-a]pyridine-3-carboxamide]: the melting point fell in the range of 167 to 167.6 °C. For the same compound, at Human 5-lipoxygenase, the inhibition at 10 µM lay in the range of 40 to 69%.

As for `CCc1nc2ccc(Cl)cn2c1C(=O)NCc1ccc(Oc2ccc(OC(F)(F)F)cc2)nc1` [compound 189, 6-Chloro-2-ethyl-N-((6-(4-(trifluoromethoxy)phenoxy)pyridin-3-yl)methyl)imidazo[1,2-a]pyridine-3-carboxamide], the melting point is 154 to 155 °C. Further, at Human 5-lipoxygenase, the inhibition at 10 µM is more than 69% and the negative logarithm of the IC50 (pIC50) (in general, the IC50 on a negative log10 scale, so that one unit is a factor of ten) is more than 6.00.

The compound `CCc1nc2ccc(Cl)cn2c1C(=O)NCc1ccc(N2CCCC2)cc1` [compound 191, 6-Chloro-2-ethyl-N-(4-(pyrrolidin-1-yl)benzyl)imidazo[1,2-a]pyridine-3-carboxamide] registered a melting point of 222 to 223 °C. The compound also displayed an inhibition at 10 µM at Human 5-lipoxygenase of less than 40%.

Regarding `CCc1nc2ccc(Cl)cn2c1C(=O)NCc1ccc(N2CC(C)CC(C)C2)cc1` (stereo not drawn) [compound 197, 6-Chloro-N-(4-(3,5-dimethylpiperidin-1-yl)benzyl)-2-ethylimidazo[1,2-a]pyridine-3-carboxamide], the melting point lay within 157.2 to 158 °C. For the same compound, on Human 5-lipoxygenase, the inhibition at 10 µM is more than 69% and the pIC50 was less than 4.70.

Regarding `CCc1nc2cc(Cl)ccn2c1C(=O)NCc1ccc(N2CC(C)CC(C)C2)cc1` (stereo not drawn) [compound 198, 7-Chloro-N-(4-(3,5-dimethylpiperidin-1-yl)benzyl)-2-ethylimidazo[1,2-a]pyridine-3-carboxamide], the melting point was in the range of 181.5 to 182.8 °C. The inhibition at 10 µM against Human 5-lipoxygenase was in the range of 40 to 69%.

Regarding `CCc1nc2cc(Cl)ccn2c1C(=O)NCc1ccc(N2CCC(O)CC2)cc1` [compound 199, 7-Chloro-2-ethyl-N-(4-(4-hydroxypiperidin-1-yl)benzyl)imidazo[1,2-a]pyridine-3-carboxamide], the melting point lay in the range of 179.1 to 180 °C. On Human 5-lipoxygenase, the inhibition at 10 µM was less than 40%.

Turning to `CCc1nc2cc(Cl)ccn2c1C(=O)NCc1ccc(N2C=CC(=O)CC2)cc1` [compound 201, 7-Chloro-2-ethyl-N-(4-(4-oxo-3,4-dihydropyridin-1(2H)-yl)benzyl)imidazo[1,2-a]pyridine-3-carboxamide], the melting point lay in the range of 201.3 to 202.8 °C. Further, the inhibition at 10 µM at Human 5-lipoxygenase is less than 40%.

In the case of `CCc1nc2cc(Cl)ccn2c1C(=O)NCc1cccc(-c2ccc(OC(F)(F)F)cc2)c1` [compound 204, 7-Chloro-2-ethyl-N-((4′-(trifluoromethoxy)biphenyl-3-yl)methyl)imidazo[1,2-a]pyridine-3-carboxamide], the melting point was 192.6 °C. For the same compound, on Human 5-lipoxygenase, the inhibition at 10 µM was less than 40%.

`CCc1nc2ccc(Br)cn2c1C(=O)NCc1ccc(OCc2ccc(OC(F)(F)F)cc2)cc1` [compound 206, 6-Bromo-2-ethyl-N-(4-(4-(trifluoromethoxy)benzyloxy)benzyl)imidazo[1,2-a]pyridine-3-carboxamide] displayed a melting point of 189.7 °C. On Human 5-lipoxygenase, this compound showed an inhibition at 10 µM of less than 40%.

Turning to `CCc1nc2ccccn2c1C(=O)NCc1ccc(OCc2ccc(OC(F)(F)F)cc2)cc1` [compound 207, 2-Ethyl-N-(4-(4-(trifluoromethoxy)benzyloxy)benzyl)imidazo[1,2-a]pyridine-3-carboxamide], the melting point was 138.7 °C. On Human 5-lipoxygenase, this compound showed an inhibition at 10 µM of more than 69% and a pIC50 of 4.70 to 6.00.

`CCc1nc2cc(Cl)ccn2c1C(=O)NCc1ccc(N2CCC(Cc3ccccc3)CC2)cc1` [compound 208, N-(4-(4-Benzylpiperidin-1-yl)benzyl)-7-chloro-2-ethylimidazo[1,2-a]pyridine-3-carboxamide] registered a melting point of 63.8 °C. Besides, on Human 5-lipoxygenase, the inhibition at 10 µM is more than 69% and the pIC50 is 4.70 to 6.00.

In turn, `CCc1nc2cc(Cl)ccn2c1C(=O)NCc1ccc(N2CCC(c3ccccc3)CC2)cc1` [compound 209, 7-Chloro-2-ethyl-N-(4-(4-phenylpiperidin-1-yl)benzyl)imidazo[1,2-a]pyridine-3-carboxamide] returned a melting point of 164.5 °C. Besides, the inhibition at 10 µM against Human 5-lipoxygenase was more than 69%.

Regarding `CCc1nc2ccc(Cl)cn2c1C(=O)NCc1ccc(N2CCC(c3ccccc3)CC2)cc1` [compound 210, 6-Chloro-2-ethyl-N-(4-(4-phenylpiperidin-1-yl)benzyl)imidazo[1,2-a]pyridine-3-carboxamide], the melting point stood at 138.2 °C. The compound also returned an inhibition at 10 µM on Human 5-lipoxygenase of 40 to 69%.

With `CCC1=C(C(=O)NCc2ccc(N3CCC(C)(C)CC3)cc2)N2C=CC(Cl)=CC2N1` (stereo not drawn) [compound 211, 7-Chloro-N-(4-(4,4-dimethylpiperidin-1-yl)benzyl)-2-ethyl-1,8a-dihydroimidazo[1,2-a]pyridine-3-carboxamide], the melting point was 121.3 °C. At Human 5-lipoxygenase, the inhibition at 10 µM was more than 69% and the pIC50 is 4.70 to 6.00.

Turning to `CCc1nc2cc(Cl)ccn2c1C(=O)NCc1ccc(N2CCC(CO)CC2)cc1` [compound 212, 7-Chloro-2-ethyl-N-(4-(4-(hydroxymethyl)piperidin-1-yl)benzyl)imidazo[1,2-a]pyridine-3-carboxamide], the melting point stood at 179.8 °C. Moreover, at Human 5-lipoxygenase, the inhibition at 10 µM is less than 40%.

For `CCc1nc2ccc(Cl)cn2c1C(=O)NCc1ccc(N2CCC(COc3ccc(OC(F)(F)F)cc3)CC2)cc1` [compound 213, 6-chloro-2-ethyl-N-(4-(4-((4-(trifluoromethoxy)phenoxy)methyl)piperidin-1-yl)benzyl)imidazo[1,2-a]pyridine-3-carboxamide], the melting point was determined as 183.6 °C. At Human 5-lipoxygenase, this compound registered an inhibition at 10 µM of less than 40%.

In turn, `CCc1nc2cc(Cl)ccn2c1C(=O)NCc1ccc(N2CCC(COc3ccc(OC(F)(F)F)cc3)CC2)cc1` [compound 214, 7-Chloro-2-ethyl-N-(4-(4-((4-(trifluoromethoxy)phenoxy)methyl)piperidin-1-yl)benzyl)imidazo[1,2-a]pyridine-3-carboxamide] came in with a melting point of 189.5 °C. At Human 5-lipoxygenase, this compound registered an inhibition at 10 µM of less than 40%.

With `CCc1nc2cc(Cl)ccn2c1C(=O)NCc1ccc(NCc2ccc(OC(F)(F)F)cc2)cc1` [compound 215, 7-Chloro-2-ethyl-N-(4-((4-(trifluoromethoxy)benzyl)amino)benzyl)imidazo[1,2-a]pyridine-3-carboxamide], the melting point was found to be 169.6 °C. At Human 5-lipoxygenase, this compound showed an inhibition at 10 µM of 40 to 69%.

`C=C1CCN(c2ccc(CNC(=O)c3c(CC)nc4cc(Cl)ccn34)cc2)CC1` [compound 218, 7-Chloro-2-ethyl-N-(4-(4-methylenepiperidin-1-yl)benzyl)imidazo[1,2-a]pyridine-3-carboxamide] returned a melting point of 168.3 °C. Further, the inhibition at 10 µM against Human 5-lipoxygenase fell in the range of 40 to 69%.

`CCc1nc2cc(C)ccn2c1C(=O)NCc1ccc(Oc2ccc(OC(F)(F)F)cc2)cc1` [compound 219, 2-Ethyl-7-methyl-N-(4-(4-(trifluoromethoxy)phenoxy)benzyl)imidazo[1,2-a]pyridine-3-carboxamide] displayed a melting point of 133.6 °C. In addition, on Human 5-lipoxygenase, the inhibition at 10 µM was more than 69% and the pIC50 is more than 6.00.

In the case of `CCc1nc2cc(C)ccn2c1C(=O)NCc1ccc(N2CCN(c3ccc(F)cc3)CC2)cc1` [compound 220, 2-Ethyl-N-(4-(4-(4-fluorophenyl)piperazin-1-yl)benzyl)-7-methylimidazo[1,2-a]pyridine-3-carboxamide], the melting point is 203.7 °C. Besides, at Human 5-lipoxygenase, the inhibition at 10 µM lay in the range of 40 to 69%.

Regarding `CCc1nc2ccc(Cl)cn2c1C(=O)NCc1ccc(N2CCC3CCCCC3C2)cc1` (stereo not drawn) [compound 221, 6-Chloro-2-ethyl-N-(4-(octahydroisoquinolin-2(1H)-yl)benzyl)imidazo[1,2-a]pyridine-3-carboxamide], the melting point was 141.7 °C. The inhibition at 10 µM on Human 5-lipoxygenase is less than 40%.

Compound `CCc1nc2cc(Cl)ccn2c1C(=O)NCc1ccc(N2CCC3CCCCC3C2)cc1` (stereo not drawn) [compound 222, 7-Chloro-2-ethyl-N-(4-(octahydroisoquinolin-2(1H)-yl)benzyl)imidazo[1,2-a]pyridine-3-carboxamide] returned a melting point of 174.2 °C. Moreover, the inhibition at 10 µM against Human 5-lipoxygenase is less than 40%.
